According to ChEMBL document CHEMBL1201862, “PubChem BioAssay data set” (2004):
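Results reflect a 48-hour exposure of cells in 96-well plates to compound at five concentrations. GI50 = concentration required for 50% inhibition of growth.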 Activity calls are given as the source filed them. Rule as the data show it: active = GI50 up to about 1.1 µM and inactive = higher.

Experiments:
Assay in all cases: DTP human tumour cell line panel, 48 h
Hs-578T = test system: Hs-578T
LOX IMVI = test system: LOX IMVI
M14 = test system: M14
RXF 393 = test system: RXF 393
OVCAR-4 = test system: OVCAR-4
EKVX = test system: EKVX
HOP-92 = test system: HOP-92
HCC 2998 = test system: HCC 2998
SR = test system: SR
NCI-H522 = test system: NCI-H522
DU-145 = test system: DU-145
NCI-H226 = test system: NCI-H226
SF-295 = test system: SF-295
SW-620 = test system: SW-620
U-251 = test system: U-251
NCI-H460 = test system: NCI-H460
NCI/ADR-RES = test system: NCI/ADR-RES
OVCAR-3 = test system: OVCAR-3
OVCAR-5 = test system: OVCAR-5
A549 = test system: A549
K562 = test system: K562
SN12C = test system: SN12C
SNB-75 = test system: SNB-75
TK-10 = test system: TK-10
SK-MEL-5 = test system: SK-MEL-5
SK-MEL-2 = test system: SK-MEL-2
CCRF-CEM = test system: CCRF-CEM
SNB-19 = test system: SNB-19
HL-60 = test system: HL-60
UACC-257 = test system: UACC-257
MCF7 = test system: MCF7
HCT-116 = test system: HCT-116
COLO 205 = test system: COLO 205
MDA-N = test system: MDA-N
RPMI-8226 = test system: RPMI-8226
MDA-MB-435 = test system: MDA-MB-435
ACHN = test system: ACHN
NCI-H23 = test system: NCI-H23
BT-549 = test system: BT-549
MDA-MB-231 = test system: MDA-MB-231
MOLT-4 = test system: MOLT-4
786-0 = test system: 786-0
HCT-15 = test system: HCT-15
SK-MEL-28 = test system: SK-MEL-28
PC-3 = test system: PC-3
HOP-62 = test system: HOP-62
A498 = test system: A498
Malme-3M = test system: Malme-3M
UACC-62 = test system: UACC-62
SK-OV-3 = test system: SK-OV-3
KM12 = test system: KM12
HT-29 = test system: HT-29
OVCAR-8 = test system: OVCAR-8
T47D = test system: T47D
CAKI-1 = test system: CAKI-1
SF-268 = test system: SF-268
SF-539 = test system: SF-539
UO-31 = test system: UO-31
IGROV-1 = test system: IGROV-1
M19-MEL = test system: M19-MEL
DMS-273 = test system: DMS-273
DMS-114 = test system: DMS-114
SNB-78 = test system: SNB-78

## CC(C)CSCC1OC(n2cnc3c(N)nccc32)C(O)C1O (stereo not drawn)
Hs-578T
  GI50: > 72.1 µM (inactive)
LOX IMVI
  GI50: > 100 µM (inactive)
M14
  GI50: > 100 µM (inactive)
RXF 393
  GI50: > 52 µM (inactive)
OVCAR-4
  GI50: > 100 µM (inactive)
EKVX
  GI50: 89.5 µM (inactive)
HOP-92
  GI50: > 72.9 µM (inactive)
HCC 2998
  GI50: 27.9 µM (inactive)
SR
  GI50: > 100 µM (inactive)
NCI-H522
  GI50: 45.8 µM (inactive)
DU-145
  GI50: > 100 µM (inactive)
NCI-H226
  GI50: > 57.1 µM (inactive)
SF-295
  GI50: > 100 µM (inactive)
SW-620
  GI50: > 100 µM (inactive)
U-251
  GI50: > 100 µM (inactive)
NCI-H460
  GI50: > 100 µM (inactive)
NCI/ADR-RES
  GI50: > 100 µM (inactive)
OVCAR-3
  GI50: > 100 µM (inactive)
OVCAR-5
  GI50: > 100 µM (inactive)
A549
  GI50: > 100 µM (inactive)
K562
  GI50: > 75 µM (inactive)
SN12C
  GI50: > 100 µM (inactive)
SNB-75
  GI50: > 100 µM (inactive)
TK-10
  GI50: > 100 µM (inactive)
SK-MEL-5
  GI50: 43.8 µM (inactive)
SK-MEL-2
  GI50: > 100 µM (inactive)
CCRF-CEM
  GI50: > 100 µM (inactive)
SNB-19
  GI50: > 100 µM (inactive)
HL-60
  GI50: > 100 µM (inactive)
UACC-257
  GI50: > 85.3 µM (inactive)
MCF7
  GI50: > 100 µM (inactive)
HCT-116
  GI50: > 100 µM (inactive)
COLO 205
  GI50: > 86.1 µM (inactive)
MDA-N
  GI50: > 100 µM (inactive)
RPMI-8226
  GI50: > 67 µM (inactive)
MDA-MB-435
  GI50: > 100 µM (inactive)
ACHN
  GI50: > 100 µM (inactive)
NCI-H23
  GI50: > 100 µM (inactive)
BT-549
  GI50: > 100 µM (inactive)
MDA-MB-231
  GI50: > 100 µM (inactive)
MOLT-4
  GI50: > 87.5 µM (inactive)
786-0
  GI50: > 100 µM (inactive)
HCT-15
  GI50: > 100 µM
SK-MEL-28
  GI50: > 100 µM (inactive)
PC-3
  GI50: > 100 µM (inactive)
HOP-62
  GI50: > 100 µM (inactive)
A498
  GI50: > 100 µM (inactive)
Malme-3M
  GI50: > 100 µM (inactive)
UACC-62
  GI50: > 100 µM (inactive)
SK-OV-3
  GI50: > 100 µM (inactive)
KM12
  GI50: > 100 µM (inactive)
HT-29
  GI50: > 100 µM (inactive)
OVCAR-8
  GI50: > 100 µM (inactive)
T47D
  GI50: > 100 µM (inactive)
CAKI-1
  GI50: > 100 µM (inactive)
SF-268
  GI50: > 100 µM (inactive)
SF-539
  GI50: > 100 µM (inactive)
UO-31
  GI50: > 100 µM (inactive)
IGROV-1
  GI50: > 100 µM (inactive)

## COc1ccc(OC)c2c(=O)c3ccccc3[nH]c12
M14
  GI50: 74.8 µM (inactive)
RXF 393
  GI50: 41.2 µM (inactive)
EKVX
  GI50: > 100 µM (inactive)
HOP-92
  GI50: 37.1 µM (inactive)
SR
  GI50: 41.1 µM (inactive)
NCI-H522
  GI50: 82.8 µM (inactive)
M19-MEL
  GI50: > 100 µM (inactive)
NCI-H226
  GI50: 66.5 µM (inactive)
U-251
  GI50: 54.1 µM (inactive)
NCI-H460
  GI50: 38.9 µM (inactive)
OVCAR-5
  GI50: 70.1 µM (inactive)
A549
  GI50: 47 µM (inactive)
TK-10
  GI50: > 100 µM (inactive)
CCRF-CEM
  GI50: > 100 µM (inactive)
SNB-19
  GI50: 96.6 µM (inactive)
DMS-273
  GI50: 62.5 µM (inactive)
HL-60
  GI50: 48.3 µM (inactive)
UACC-257
  GI50: 4.44 µM (inactive)
HCT-116
  GI50: 44.2 µM (inactive)
DMS-114
  GI50: 66.8 µM (inactive)
SNB-78
  GI50: 49.7 µM (inactive)
NCI-H23
  GI50: 41.7 µM (inactive)
MOLT-4
  GI50: 47.9 µM (inactive)
SK-MEL-28
  GI50: > 100 µM (inactive)
HOP-62
  GI50: > 100 µM (inactive)
A498
  GI50: 69.3 µM (inactive)
UACC-62
  GI50: 43.6 µM (inactive)
SK-OV-3
  GI50: > 100 µM (inactive)
KM12
  GI50: 57.8 µM (inactive)
HT-29
  GI50: 45.6 µM (inactive)
OVCAR-8
  GI50: 19.3 µM (inactive)
SF-268
  GI50: 54.3 µM (inactive)
UO-31
  GI50: 30.9 µM (inactive)
IGROV-1
  GI50: > 100 µM (inactive)
